Data published in patent US4305951A, “Novel amino derivatives of 5-(2-hydroxystyryl)-isoxazole, their preparation and therapeutic formulations containing these compounds” (BASF Aktiengesellschaft, priority 1979, dated 1981).
Entries after “also recorded” stand apart in the source; their conditions may differ.

Tests used:
[1] = tested on: blood pressure in the carotid artery; test: Hypotensive action on narcotized rats; format: in vivo, rat (Sprague-Dawley); conditions: for ED20: Rattus norvegicus, read-out: ED 20% (dose which lowers the mean carotid blood pressure by 20%)
Experimental: To test the hypotensive action, the compounds are administered intravenously to male Sprague-Dawley rats (weight: 230-280 g) under urethane narcosis (1.78 g/kg administered intraperitineally).
The blood pressure in the carotid artery is measured by means of a Statham transducer. The ED 20% is determined as the dose which lowers the mean carotid pressure by 20%.
^(2) Rats. Urethane narcosis. Intravenous administration. ED 20% =
dose [in mg/kg] which lowers the blood pressure by 20%.

[2] = in vivo; conditions: for LD50: ip
Text: Intraperitoneal administration.

[3] = tested on: isoproterenol-induced tachycardia; test: β-Sympatholytic action: inhibition of isoproterenol-induced tachycardia in pithed rats; conditions: for ED50: Rattus norvegicus, read-out: ED 50% (dose which inhibits the isoproterenol-induced increase in pulse rate by 50%)
[4] = urethane narcosis, intravenous administration

## Cc1cc(/C=C/c2ccccc2OCC(O)CNC(C)CCc2ccc(O)cc2)on1 (centres unmarked) [Example 3, 3-methyl-5-[2-[2-hydroxy-3-(3-(4-hydroxyphenyl)-1-methylpropylamino)-propoxy]-styryl]-isoxazole]
[1]; [4]
  ED20: 0.49 mg/kg
[2]; mouse, in vivo
  Q: lethal dose as multiple of the β-sympatholytically effective dose: 24,600
  selectivity ratio: 24600
  LD50: 261 mg/kg
[3]; iv
  ED50: 0.0106 mg/kg
[3]; pithed rats, intravenous
  β-sympatholytic activity compared with propranolol (in words): corresponds approximately to that of propranolol
[3]; rat, in vivo, iv
  R.A. = relative activity (β-sympatholytic): 1.20

## COc1ccc(CCNCC(O)COc2ccccc2/C=C/c2cc(C)no2)cc1OC (centres unmarked) [Example 4, 3-methyl-5-[2-[2-hydroxy-3-(2-(3,4-dimethoxyphenyl)-1-ethylamino)-propoxy]-styryl]-isoxazole]
[1]; [4]
  ED20: 0.7 mg/kg
  ED 20% (dose which lowers the mean carotid blood pressure by 20%): 0.70 mg/kg
[2]; LD 50 mice i.p. / ED 50% pithed rats i.v.
  Q: lethal dose as multiple of the β-sympatholytically effective dose: 29,900
[2]; mouse, in vivo
  selectivity ratio: 29900
  LD50: 642 mg/kg
[3]; iv
  ED50: 0.0215 mg/kg
[3]; pithed rats, intravenous
  β-sympatholytic activity compared with propranolol (in words): corresponds approximately to that of propranolol
[3]; rat, in vivo, iv
  R.A. = relative activity (β-sympatholytic): 0.59

## CC(C)NCC(O)COc1cccc2ccccc12 (centres unmarked) [Propranolol, propranolol]
[1]; 2.15 mg/kg intravenous, urethane narcosis
  increase of blood pressure: 11%
[1]; 4.64 mg/kg intravenous, urethane narcosis, average
  lowering of blood pressure: 36%
[1]; 10 mg/kg intravenous, urethane narcosis
  animals that died: 2 out of 6
[1]; acute test, intravenous
  hypotensive action (in words): does not have a hypotensive effect in acute test conditions; also recorded: up to doses of 2.15 mg/kg, does not lower the blood pressure
[3]; Propranolol = 1.00, pithed rats, intravenous
  R.A. = relative activity (β-sympatholytic): 1.00
